According to ChEMBL document CHEMBL1137511, “Identification of a series of novel derivatives as potent HCV inhibitors by a ligand-based virtual screening optimized procedure” (Bioorg Med Chem, 2007):

Test: Inhibition of HCV genotype 1 polymerase
Design: species or system Hepacivirus hominis

| SMILES | IC50 [nM] |
| --- | --- |
| COc1ccc2c(c1)S(=O)(=O)NC(c1c(O)c3cccnc3n(Cc3ccccc3)c1=O)=N2 | 8310 |
| O=c1c(C2=NS(=O)(=O)c3cccc(O)c3N2)c(O)c2cccnc2n1Cc1ccccc1 | 8370 |
| O=c1c(C2=NS(=O)(=O)c3ccccc3N2)c(O)c2ccccc2n1NCc1ccc(Br)cc1 | 10400 |
| Cc1ccccc1CNn1c(=O)c(C2=NS(=O)(=O)c3ccccc3N2)c(O)c2ccccc21 | 6120 |
| O=c1c(C2=NS(=O)(=O)c3ccccc3N2)c(O)c2ccccc2n1NCc1cccc(Br)c1 | 1040 |
| CC(C)CCn1c(=O)c(C2=NS(=O)(=O)c3cc(NS(=O)(=O)Nc4ccccc4)ccc3N2)c(O)c2cccnc21 | 41 |
| CC(C)CCn1c(=O)c(C2=NS(=O)(=O)c3cc(NS(=O)(=O)NC4CCCCC4)ccc3N2)c(O)c2cccnc21 | 67 |
| O=c1c(C2=NS(=O)(=O)c3ccccc3N2)c(O)c2ccccc2n1NCC1CC1 | 285 |
| NS(=O)(=O)Nc1ccc2c(c1)S(=O)(=O)N=C(c1c(O)c3cccnc3n(NC3CCC3)c1=O)N2 | 5.2 |
| CC(C)CCn1c(=O)c(C2=NS(=O)(=O)c3cc(NS(=O)(=O)NC(=O)OCC(=O)O)ccc3N2)c(O)c2cccnc21 | 50 |
| CC(C)(C)CCNn1c(=O)c(C2=NS(=O)(=O)c3ccccc3N2)c(O)c2ccccc21 | 411 |
| CC(C)CNn1c(=O)c(C2=NS(=O)(=O)c3ccccc3N2)c(O)c2ccccc21 | 941 |
| COc1ccc2c(c1)S(=O)(=O)N=C(c1c(O)c3cccnc3n(CCC(C)C)c1=O)N2 | 1130 |
| COC(=O)c1ccccc1NS(=O)(=O)Nc1ccc2c(c1)S(=O)(=O)N=C(c1c(O)c3cccnc3n(CCC(C)C)c1=O)N2 | 129 |
| CC(C)CCn1c(=O)c(C2=NS(=O)(=O)c3cc(NS(=O)(=O)NCCN)ccc3N2)c(O)c2cccnc21 | 10 |
| COC(=O)c1ccc(NS(=O)(=O)Nc2ccc3c(c2)S(=O)(=O)N=C(c2c(O)c4cccnc4n(CCC(C)C)c2=O)N3)cc1 | 48 |
| CC(C)CCn1c(=O)c(C2=NS(=O)(=O)c3cc(NS(=O)(=O)NCCC(N)=O)ccc3N2)c(O)c2cccnc21 | 20 |
| Cc1cccc2c1N=C(c1c(O)c3cccnc3n(Cc3ccccc3)c1=O)NS2(=O)=O | 6700 |
| O=c1c(C2=NS(=O)(=O)c3ccccc3N2)c(O)c2ccccc2n1NCc1ccccc1 | 5090 |
| COCCOC(=O)NS(=O)(=O)Nc1ccc2c(c1)S(=O)(=O)NC(c1c(O)c3cccnc3n(CCC(C)C)c1=O)=N2 | 87 |
| CCCC(CCC)Nn1c(=O)c(C2=NS(=O)(=O)c3ccccc3N2)c(O)c2ccccc21 | 2240 |

| SMILES | IC50 [nM] |
| --- | --- |
| O=c1c(C2=NS(=O)(=O)c3ccccc3N2)c(O)c2ccccc2n1NCC1CCCCCC1 | 1040 |
| CC(C)CCn1c(=O)c(C2=NS(=O)(=O)c3cc(NS(=O)(=O)Nc4cccc(C(N)=O)c4)ccc3N2)c(O)c2cccnc21 | 43 |
| CC(C)CCNn1c(=O)c(C2=NS(=O)(=O)c3ccccc3N2)c(O)c2ccccc21 | 629 |
| CC(C)CCn1c(=O)c(C2=NS(=O)(=O)c3cc(OCC(=O)N(C)C)ccc3N2)c(O)c2cccnc21 | 934 |
| O=c1c(C2=NS(=O)(=O)c3ccccc3N2)c(O)c2ccccc2n1NC1CCCCC1 | 356 |
| CC(C)CCn1c(=O)c(C2=NS(=O)(=O)c3cc(NS(=O)(=O)Nc4ccc(C(=O)O)cc4)ccc3N2)c(O)c2cccnc21 | 20 |
| COc1ccccc1CNS(=O)(=O)Nc1ccc2c(c1)S(=O)(=O)N=C(c1c(O)c3cccnc3n(CCC(C)C)c1=O)N2 | 57 |
| COc1cccc2c1NC(c1c(O)c3cccnc3n(CCC(C)C)c1=O)=NS2(=O)=O | 17600 |
| COc1cccc(CNS(=O)(=O)Nc2ccc3c(c2)S(=O)(=O)N=C(c2c(O)c4cccnc4n(CCC(C)C)c2=O)N3)c1 | 15 |
| CC(C)CCn1c(=O)c(C2=NS(=O)(=O)c3cc(NS(=O)(=O)NC(=O)OCCN)ccc3N2)c(O)c2cccnc21 | 21 |
| CC(C)CCn1c(=O)c(C2=NS(=O)(=O)c3cc(OCCN)ccc3N2)c(O)c2cccnc21 | 637000 |
| CC(C)CCn1c(=O)c(C2=NS(=O)(=O)c3cc(NS(=O)(=O)Nc4cccc(C(=O)O)c4)ccc3N2)c(O)c2cccnc21 | 115 |
| CC(C)CCn1c(=O)c(C2=NS(=O)(=O)c3cc(O)ccc3N2)c(O)c2cccnc21 | 390 |
| O=c1c(C2=NS(=O)(=O)c3cc(Br)ccc3N2)c(O)c2cccnc2n1Cc1ccccc1 | 16800 |
| Cc1ccc2c(c1)S(=O)(=O)NC(c1c(O)c3cccnc3n(Cc3ccccc3)c1=O)=N2 | 25700 |
| CC(C)CCn1c(=O)c(C2=NS(=O)(=O)c3cc(NCC(N)=O)ccc3N2)c(O)c2cccnc21 | 470 |
| CC(C)CCn1c(=O)c(C2=NS(=O)(=O)c3cc(NS(=O)(=O)NC4CCNCC4)ccc3N2)c(O)c2cccnc21 | 32 |
| C=CCOC(=O)NS(=O)(=O)Nc1ccc2c(c1)S(=O)(=O)N=C(c1c(O)c3cccnc3n(CCC(C)C)c1=O)N2 | 88 |
| O=c1c(C2=NS(=O)(=O)c3ccccc3N2)c(O)c2ccccc2n1NCC1=CCOC=C1 | 4630 |
| CCOC(=O)c1cccc(NS(=O)(=O)Nc2ccc3c(c2)S(=O)(=O)N=C(c2c(O)c4cccnc4n(CCC(C)C)c2=O)N3)c1 | 132 |
| CNS(=O)(=O)Nc1ccc2c(c1)S(=O)(=O)NC(c1c(O)c3cccnc3n(CCC(C)C)c1=O)=N2 | 14 |

| SMILES | IC50 [nM] |
| --- | --- |
| CC(C)CCn1c(=O)c(C2=NS(=O)(=O)c3cc(NS(=O)(=O)N4CCCCC4)ccc3N2)c(O)c2cccnc21 | 51 |
| O=c1c(C2=NS(=O)(=O)c3ccccc3N2)c(O)c2ccccc2n1NCc1cccs1 | 2330 |
| O=c1c(C2=NS(=O)(=O)c3ccccc3N2)c(O)c2cccnc2n1Cc1ccccc1 | 5800 |
| CCCOc1ccc2c(c1)S(=O)(=O)NC(c1c(O)c3cccnc3n(CCC(C)C)c1=O)=N2 | 1620 |
| O=c1c(C2=NS(=O)(=O)c3ccccc3N2)c(O)c2ccccc2n1NCc1ccoc1 | 1550 |
| CCCCCNn1c(=O)c(C2=NS(=O)(=O)c3ccccc3N2)c(O)c2ccccc21 | 928 |
| Cc1cccc(CNn2c(=O)c(C3=NS(=O)(=O)c4ccccc4N3)c(O)c3ccccc32)c1 | 8210 |
| CC(C)CCn1c(=O)c(C2=NS(=O)(=O)c3cc(NS(=O)(=O)N4CCCC4)ccc3N2)c(O)c2cccnc21 | 27 |
| CC(C)CCn1c(=O)c(C2=NS(=O)(=O)c3cc(NS(=O)(=O)NC(=O)OCCC#N)ccc3N2)c(O)c2cccnc21 | 35 |
| CC(C)CCn1c(=O)c(C2=NS(=O)(=O)c3cc(NS(=O)(=O)C(C)C)ccc3N2)c(O)c2cccnc21 | 8 |
| CCC(CC)Nn1c(=O)c(C2=NS(=O)(=O)c3ccccc3N2)c(O)c2ccccc21 | 2460 |
| CC(C)CCn1c(=O)c(C2=NS(=O)(=O)c3cc(OCC(=O)O)ccc3N2)c(O)c2cccnc21 | 367 |
| CC(C)CCn1c(=O)c(C2=NS(=O)(=O)c3cc(NS(=O)(=O)NCc4ccccc4)ccc3N2)c(O)c2cccnc21 | 5.5 |
| CC(C)CCn1c(=O)c(C2=NS(=O)(=O)c3cc(NS(=O)(=O)c4ccccc4)ccc3N2)c(O)c2cccnc21 | 41 |
| CC(C)CCn1c(=O)c(C2=NS(=O)(=O)c3cc(NCC#N)ccc3N2)c(O)c2cccnc21 | 120 |
| CNC(=O)COc1ccc2c(c1)S(=O)(=O)NC(c1c(O)c3cccnc3n(CCC(C)C)c1=O)=N2 | 180 |
| CCCC(Nn1c(=O)c(C2=NS(=O)(=O)c3ccccc3N2)c(O)c2ccccc21)C(C)C (stereo not drawn) | 6400 |
| Cc1ccsc1CNn1c(=O)c(C2=NS(=O)(=O)c3ccccc3N2)c(O)c2ccccc21 | 15000 |
| CC(C)CCn1c(=O)c(C2=NS(=O)(=O)c3cc(NS(=O)(=O)N(C)C(=O)OCc4ccccc4)ccc3N2)c(O)c2cccnc21 | 121 |
| CCCCNn1c(=O)c(C2=NS(=O)(=O)c3ccccc3N2)c(O)c2ccccc21 | 951 |
| O=c1c(C2=NS(=O)(=O)c3ccccc3N2)c(O)c2ccccc2n1NCc1ccc(Cl)s1 | 4780 |

| SMILES | IC50 [nM] |
| --- | --- |
| CC(C)CCn1c(=O)c(C2=NS(=O)(=O)c3cc(NS(=O)(=O)N4CCC4)ccc3N2)c(O)c2cccnc21 | 24 |
| COc1ccc(CNS(=O)(=O)Nc2ccc3c(c2)S(=O)(=O)N=C(c2c(O)c4cccnc4n(CCC(C)C)c2=O)N3)cc1 | 10 |
| CC(C)CCn1c(=O)c(C2=NS(=O)(=O)c3cc(NS(C)(=O)=O)ccc3N2)c(O)c2cccnc21 | 2 |
| CC(C)CCn1c(=O)c(C2=NS(=O)(=O)c3cc(NC(=O)C(F)(F)F)ccc3N2)c(O)c2cccnc21 | 906 |
| O=c1c(C2=NS(=O)(=O)c3ccccc3N2)c(O)c2ccccc2n1NCC1CCCCC1 | 2530 |
| CC(C)CCn1c(=O)c(C2=NS(=O)(=O)c3cc(NS(=O)(=O)NC(=O)OCCCl)ccc3N2)c(O)c2cccnc21 | 189 |
| CCOC(=O)COC(=O)NS(=O)(=O)Nc1ccc2c(c1)S(=O)(=O)NC(c1c(O)c3cccnc3n(CCC(C)C)c1=O)=N2 | 61 |
| CC(C)CCn1c(=O)c(C2=NS(=O)(=O)c3cc(NS(=O)(=O)NC(=O)OCc4ccccc4)ccc3N2)c(O)c2cccnc21 | 58 |
| COc1cccc2c1NC(c1c(O)c3cccnc3n(Cc3ccccc3)c1=O)=NS2(=O)=O | 18000 |
| CC(C)CCn1c(=O)c(C2=NS(=O)(=O)c3cc(NS(=O)(=O)Nc4ccc(C(N)=O)cc4)ccc3N2)c(O)c2cccnc21 | 18 |
| CC(C)CCn1c(=O)c(C2=NS(=O)(=O)c3cc(NS(=O)(=O)NCCc4ccccc4)ccc3N2)c(O)c2cccnc21 | 18 |
| CC(C)CCn1c(=O)c(C2=NS(=O)(=O)c3cc(N)ccc3N2)c(O)c2cccnc21 | 310 |
| CNC(=O)c1ccc(NS(=O)(=O)Nc2ccc3c(c2)S(=O)(=O)N=C(c2c(O)c4cccnc4n(CCC(C)C)c2=O)N3)cc1 | 43 |
| CC(C)CCn1c(=O)c(C2=NS(=O)(=O)c3cc(OCC#N)ccc3N2)c(O)c2cccnc21 | 141 |
| CNS(=O)(=O)Nc1ccc2c(c1)S(=O)(=O)N=C(c1c(O)c3cccnc3n(NC3CCC3)c1=O)N2 | 87000 |
| COC(=O)NS(=O)(=O)Nc1ccc2c(c1)S(=O)(=O)N=C(c1c(O)c3cccnc3n(CCC(C)C)c1=O)N2 | 63 |
| CC(C)CCn1c(=O)c(C2=NS(=O)(=O)c3cc(NS(=O)(=O)NC4CCCC4)ccc3N2)c(O)c2cccnc21 | 39 |
| CC(C)CCn1c(=O)c(C2=NS(=O)(=O)c3cc(NS(=O)(=O)NC(=O)OCCOCc4ccccc4)ccc3N2)c(O)c2cccnc21 | 96 |
| O=c1c(C2=NS(=O)(=O)c3ccccc3N2)c(O)c2ccccc2n1NCc1ccco1 | 3260 |
| CC(C)Nn1c(=O)c(C2=NS(=O)(=O)c3ccccc3N2)c(O)c2ccccc21 | 6350 |
